# Results: patent US20220073554A1, “LINCOSAMIDE ANTIBIOTICS AND USES THEREOF” (President and Fellows of Harvard College, priority 2017, published 2022)
# Like-named read-outs stand apart in the source and are kept apart here.
# What was measured:
# Type in all cases: cell-based
# [1] = tested on: S. aureus MP-549 msr(a) USA 300; experiment: MIC against S. aureus MP-549 msr(a) USA 300; details: Staphylococcus aureus, USA300, S. aureus MP-549 msr(a) USA 300
# S. pyogenes ATCC 19615 = experiment: MIC against S. pyogenes ATCC 19615; details: Streptococcus pyogenes, ATCC19615; S. pyogenes ATCC 19615; read-out: MIC
# H. influenzae ATCC 49247 = experiment: MIC against H. influenzae ATCC 49247; details: Haemophilus influenzae, ATCC49247
# E. coli ATCC 25922 = experiment: MIC against E. coli ATCC 25922; details: Escherichia coli, ATCC25922
# S. aureus ATCC 29213 = experiment: MIC against S. aureus ATCC 29213
# S. pneumoniae ATCC 49619 = experiment: MIC against S. pneumoniae ATCC 49619; details: Streptococcus pneumoniae, ATCC49619
# [2] = tested on: E. coli MP-74 LptD mutant; experiment: MIC against E. coli MP-74 LptD mutant; details: Escherichia coli
# E. coli MP-9 ΔTolC = experiment: MIC against E. coli MP-9 ΔTolC; details: Escherichia coli
# E. faecalis ATCC 29212 = experiment: MIC against E. faecalis ATCC 29212; details: Enterococcus faecalis
# [3] = tested on: S. pyogenes MMX 946 Macrolide-Resistant; experiment: MIC against S. pyogenes MMX 946 Macrolide-Resistant; details: Streptococcus pyogenes; S. pyogenes MMX 946 Macrolide-Resistant (MacRes); read-out: MIC
# [4] = tested on: E. faecalis MMX 847 Macrolide-Resistant; experiment: MIC against E. faecalis MMX 847 Macrolide-Resistant; details: Enterococcus faecalis; E. faecalis MMX 847 Macrolide-Resistant (MacRes); read-out: MIC
# S. aureus MMX 3035 cErmA = experiment: MIC against S. aureus MMX 3035 cErmA; details: Staphylococcus aureus, MMX3035CERMA; S. aureus MMX 3035 cErmA; read-out: MIC
# S. aureus BAA 977 iErmA = experiment: MIC against S. aureus BAA 977 iErmA; details: Staphylococcus aureus, BAA977
# K. pneumoniae ATCC 10031 = experiment: MIC against K. pneumoniae ATCC 10031; details: Klebsiella pneumoniae, ATCC10031
# E. coli ATCC 15922 = experiment: MIC against E. coli ATCC 15922; details: Escherichia coli, ATCC15922; E. coli ATCC 15922; read-out: MIC
# [5] = Staphylococcus aureus, ATCC29213, S. aureus ATCC 29213, read-out: MIC
# [6] = S. pneumoniae ATCC 49619, read-out: MIC
# [7] = H. influenzae ATCC 49247, read-out: MIC
# [8] = E. coli ATCC 25922, read-out: MIC
# [9] = K. pneumoniae ATCC 10031, read-out: MIC
# [10] = Staphylococcus aureus, ATCC29213
SMILES,MIC [1] [µg/mL],MIC (S. pyogenes ATCC 19615) [µg/mL],MIC (H. influenzae ATCC 49247) [µg/mL],MIC (E. coli ATCC 25922) [µg/mL],MIC (S. aureus ATCC 29213; [5]) [µg/mL],MIC (S. pneumoniae ATCC 49619; [6]) [µg/mL],MIC [2] [µg/mL],MIC (E. coli MP-9 ΔTolC) [µg/mL],"MIC (E. faecalis ATCC 29212; ATCC29212, read-out: MIC) [µg/mL]",MIC (E. coli ATCC 25922; [8]) [µg/mL],further results
CSC1O[C@H]([C@H](NC(=O)[C@H]2NC[C@@H]3C[C@@H](C4CCN(C)CC4)CCO[C@H]32)[C@H](C)Cl)C(O)[C@@H](O)[C@H]1O (stereo partly shown) [FSA-512012],8,4,> 256,> 256,8,1,> 256,> 256,–,–,–
CSC1O[C@H]([C@H](NC(=O)[C@H]2NC[C@@H]3C=C(c4cc(F)cc(F)c4)CCO[C@@H]23)[C@H](C)Cl)C(O)[C@@H](O)[C@H]1O (stereo partly shown) [FSA-511074],1,0.5,–,–,2,–,–,–,4,> 64,MIC (H. influenzae ATCC 49247; [7]): > 64 µg/mL; MIC [3]: > 64 µg/mL; MIC [4]: > 64 µg/mL; MIC (S. aureus MMX 3035 cErmA): > 64 µg/mL; MIC (S. aureus BAA 977 iErmA): 2 µg/mL
CSC1O[C@H]([C@H](NC(=O)[C@H]2NC[C@@H]3C=C(c4ccc(F)cc4F)CCO[C@@H]23)[C@H](C)Cl)C(O)[C@@H](O)[C@H]1O (stereo partly shown) [FSA-511072],1,0.95,–,–,1,–,–,–,4,> 64,MIC (H. influenzae ATCC 49247; [7]): > 64 µg/mL; MIC [3]: > 64 µg/mL; MIC [4]: > 64 µg/mL; MIC (S. aureus MMX 3035 cErmA): > 64 µg/mL; MIC (S. aureus BAA 977 iErmA): 1 µg/mL
CSC1O[C@H]([C@H](NC(=O)[C@H]2NC[C@@H]3CC(c4ccc(C#N)cc4)=CCO[C@H]32)[C@H](C)Cl)C(O)[C@@H](O)[C@H]1O (stereo partly shown) [FSA-511033],1,≤ 0.06,–,–,0.5,≤ 0.06,–,–,2,> 64,–
CSC1O[C@H]([C@H](NC(=O)[C@H]2NC[C@@H]3C=C(C#Cc4ccccc4)CCO[C@@H]23)[C@H](C)Cl)C(O)[C@@H](O)[C@H]1O (stereo partly shown) [FSA-510002],–,–,–,> 64,0.5,–,–,> 64,2,–,–
CSC1O[C@H]([C@H](NC(=O)[C@H]2NC[C@@H]3C[C@@H](C4CCNCC4)CCO[C@H]32)[C@H](C)Cl)C(O)[C@@H](O)[C@H]1O (stereo partly shown) [FSA-512011],8,4,> 256,> 256,8,1,> 256,> 256,–,–,–
CSC1O[C@H]([C@H](NC(=O)[C@H]2NC[C@@H]3CCCCO[C@@H]32)[C@H](C)Cl)C(O)[C@@H](O)[C@H]1O (stereo partly shown) [FSA-504062],1,–,> 64,> 64,2,–,> 64,> 64,–,–,MIC (K. pneumoniae ATCC 10031): > 64 µg/mL
COc1ccc(C2=CCO[C@@H]3[C@H](CN[C@@H]3C(=O)N[C@H]([C@H](C)Cl)[C@H]3OC(SC)[C@H](O)[C@H](O)C3O)C2)cc1 (stereo partly shown) [FSA-511020],1,≤ 0.06,–,–,0.5,≤ 0.06,–,–,4,> 64,MIC (K. pneumoniae ATCC 10031; [9]): > 64 µg/mL
CSC1O[C@H]([C@H](NC(=O)[C@H]2NC[C@@H]3CC=CCO[C@@H]32)[C@H](C)Cl)C(O)[C@@H](O)[C@H]1O (stereo partly shown) [FSA-504059],2,–,> 64,> 64,2,–,> 64,> 64,–,–,MIC (K. pneumoniae ATCC 10031): > 64 µg/mL
CSC1O[C@H]([C@H](NC(=O)[C@@H]2[C@@H]3OCC=CC[C@H]3CN2C2CC2)[C@H](C)Sc2ccc(-c3cccnc3)cc2)C(O)[C@@H](O)[C@H]1O (stereo partly shown) [FSA-214009a],–,4,–,–,–,4,–,–,> 64,–,MIC (E. coli ATCC 15922): > 64 µg/mL
CSC1O[C@H]([C@H](NC(=O)[C@H]2NC[C@@H]3CC(NCc4cccc(F)c4)CCO[C@H]32)[C@H](C)Cl)C(O)[C@@H](O)[C@H]1O (stereo partly shown) [FSA-510073],–,2,> 64,> 64,–,8,> 64,> 64,–,–,MIC (K. pneumoniae ATCC 10031): > 64 µg/mL; MIC (E. faecalis ATCC 29212; ATCC29212): > 64 µg/mL
COc1ccc([C@@H]2CCO[C@@H]3[C@H](CN[C@@H]3C(=O)N[C@H]([C@H](C)Cl)[C@H]3OC(SC)[C@H](O)[C@H](O)C3O)C2)cc1 (stereo partly shown) [FSA-512080c],–,–,–,–,–,–,–,–,–,–,MIC (H. influenzae ATCC 49247; [7]): 37 µg/mL
CSC1O[C@H]([C@H](NC(=O)[C@H]2NC[C@@H]3C[C@@H](c4ccc(C)cc4)CCO[C@H]32)[C@H](C)Cl)C(O)[C@@H](O)[C@H]1O (stereo partly shown) [FSA-512079b],0.5,≤ 0.12,–,–,–,–,–,8,1,> 128,MIC (S. aureus ATCC 29213; [10]): 0.5 µg/mL
CSC1O[C@H]([C@H](NC(=O)[C@H]2NC[C@@H]3CC(NC4CC4)CCO[C@H]32)[C@H](C)Cl)C(O)[C@@H](O)[C@H]1O (stereo partly shown) [FSA-510011],–,2,> 64,> 64,–,8,> 64,> 64,–,–,MIC (K. pneumoniae ATCC 10031): > 64 µg/mL; MIC (E. faecalis ATCC 29212; ATCC29212): > 64 µg/mL
CSC1O[C@H]([C@H](NC(=O)[C@H]2NC[C@@H]3CC(NCc4ccccc4F)CCO[C@H]32)[C@H](C)Cl)C(O)[C@@H](O)[C@H]1O (stereo partly shown) [FSA-510072],–,8,> 64,> 64,–,32,> 64,> 64,–,–,MIC (K. pneumoniae ATCC 10031): > 64 µg/mL; MIC (E. faecalis ATCC 29212; ATCC29212): > 64 µg/mL
CSC1O[C@H]([C@H](NC(=O)[C@H]2NC[C@@H]3CC(c4ccc(C)cc4)=CCO[C@H]32)[C@H](C)Cl)C(O)[C@@H](O)[C@H]1O (stereo partly shown) [FSA-511019],0.5,0.195,–,–,–,–,–,–,4,> 64,MIC (K. pneumoniae ATCC 10031; [9]): > 64 µg/mL; MIC (S. aureus ATCC 29213; [10]): 0.5 µg/mL
CSC1O[C@H]([C@H](NC(=O)[C@H]2NC[C@@H]3CC(c4cccc5cnccc45)=CCO[C@H]32)[C@H](C)Cl)C(O)[C@@H](O)[C@H]1O (stereo partly shown) [FSA-510006],–,0.5,> 64,> 64,8,1,–,> 64,–,–,MIC (K. pneumoniae ATCC 10031): > 64 µg/mL
CSC1O[C@H]([C@H](NC(=O)[C@H]2NC[C@@H]3C[C@@H](c4ccc(C#N)cc4)CCO[C@H]32)[C@H](C)Cl)C(O)[C@@H](O)[C@H]1O (stereo partly shown) [FSA-511046],0.5,≤ 0.06,–,–,–,≤ 0.06,–,8,1,–,MIC (S. aureus ATCC 29213; S. aureus ATCC 29213): 1 µg/mL; MIC (E. coli ATCC 15922): > 64 µg/mL
CSC1O[C@H]([C@H](NC(=O)[C@H]2NC[C@@H]3CC(c4ccc(C)cc4)CCO[C@H]32)[C@H](C)Cl)C(O)[C@@H](O)[C@H]1O (stereo partly shown) [FSA-511044],0.5,≤ 0.06,–,–,0.23,–,–,–,2,–,MIC (S. pneumoniae ATCC 49619): 0.5 µg/mL; MIC (E. coli ATCC 15922): > 64 µg/mL
CSC1O[C@H]([C@H](NC(=O)[C@H]2NC[C@@H]3C=C(c4ccc(C)cc4)CCO[C@@H]23)[C@H](C)Cl)C(O)[C@@H](O)[C@H]1O (stereo partly shown) [FSA-512075],–,–,–,–,0.5,–,–,–,2,> 256,–
CSC1O[C@H]([C@H](NC(=O)[C@H]2NC[C@@H]3C[C@H](c4ccc(C)cc4)CCO[C@H]32)[C@H](C)Cl)C(O)[C@@H](O)[C@H]1O (stereo partly shown) [FSA-512079c],0.5,≤ 0.12,–,–,–,–,–,8,2,> 128,MIC (S. aureus ATCC 29213; [10]): 0.5 µg/mL
CSC1O[C@H]([C@H](NC(=O)[C@H]2NC[C@@H]3CC(NCc4ccc(F)cc4)CCO[C@H]32)[C@H](C)Cl)C(O)[C@@H](O)[C@H]1O (stereo partly shown) [FSA-510074],–,8,> 64,> 64,–,–,> 64,–,–,–,MIC (K. pneumoniae ATCC 10031): > 64 µg/mL; MIC (E. faecalis ATCC 29212; ATCC29212): > 64 µg/mL
CCOC(=O)CCN1C[C@@H]2CC=CCO[C@H]2[C@H]1C(=O)N[C@H]([C@H](C)Sc1ccc(-c2cccnc2)cc1)[C@H]1OC(SC)[C@H](O)[C@H](O)C1O (stereo partly shown) [FSA-214009b],–,8,–,–,≥ 64,–,–,–,> 64,> 64,–
CSC1O[C@H]([C@H](NC(=O)[C@H]2NC[C@@H]3C=C(C#Cc4cccc(F)c4)CCO[C@@H]23)[C@H](C)Cl)C(O)[C@@H](O)[C@H]1O (stereo partly shown) [FSA-510003],–,–,–,> 64,0.5,–,–,> 64,1,–,–
